Reference: PubChem BioAssay AID1963833 (Molecular Pharmacology Branch, DTP, NCI, 2024)
Several values for one entry are separate records, joined by “and”; a condition that tells them apart may be missing. Identical values can stand only once.

Test system: 883617-216-R-J1-PDC complex spheroid viability
Test: Anticancer human tumor 883617-216-R-J1-PDC patient-derived bladder carcinoma cell line growth inhibition [POLQ]
Details: for viability, T/C: stronger effect = lower value; for IC50: curve of compound
Protocol: Multicellular complex tumor spheroid response to Polymerase (POL) inhibitors (novobiocin, ART-558, RP6685) in combination with a variety of drugs and investigational agents in selected tumor cell lines
The POL inhibitors (novobiocin, ART-558, and RP6685) were evaluated both individually and in combination with standard of care and investigational anticancer small molecules within a complex spheroid model of solid tumors. . Complex spheroids include a stromal component modeled by human endothelial cells (HUVEC) and fibroblasts modeled by human mesenchymal stem cells (MSCs). The concentration ranges selected for each drug and investigational agent were based upon clinically achievable concentrations if the clinical Cmax of the agent was known.
Compounds. The drugs and investigational agents: novobiocin (NSC847541), ART-558 (NSC835418), RP-6685 (NSC848927), peposertib (NSC802822), ceralasertib (NSC780249), elimusertib (NSC800525), camonsertib (NSC841442), AZD-1390 (NSC803789), olaparib (NSC753686), talazoparib (NSC767125), rucaparib (NSC756644), sotorasib (NSC818433), MRTX-1133 (NSC836407), SN-38 (NSC673596), topotecan (NSC609699), epotoside (NSC141540), doxorubicin (NSC123127), gemcitabine (NSC613327), 5-fluorouracil (NSC19893), paclitaxel (NSC125973), vemurafenib (NSC761431), MSA-2 (NSC828583), SN-011 (NSC837082), adavosertib (NSC754352), prexasertib (NSC758257), carboplatin (NSC241240) and oxaliplatin (NSC266046), were obtained from the National Cancer Institute (NCI) Developmental Therapeutics Program Chemical Repository (21). The FDA-approved anticancer drug set is available from the Developmental Therapeutics Program at https://dtp.cancer.gov/organization/dscb/obtaining/. […] The stock solutions were prepared in dimethyl sulfoxide (DMSO, Sigma-Aldrich, St. Louis, MO, cat. D2650), except for the platinum compounds which were prepared in saline (Quality Biological, Gaithersburg, MD, cat. 114-055-101), at 800-fold the tested concentration and stored at -70 degrees C prior to their use. All drugs and investigational agents were tested over a range starting from a high concentration at or near the clinical Cmax and decreasing in half-log increments. If the clinical Cmax for an agent had not been determined, the highest concentration tested was 10 microM, except for SN-38, which was tested at a high concentration of 1 microM.
Cell Culture. All cells were maintained in an incubator at 37 degrees C and 5% CO2 with 95% humidity. The PDC lines were cultured according to standard operating procedures established by the NCI PDMR (https://pdmr.cancer.gov). Table 3 of the manuscript, lists the cell lines along with the number of the three cell types plated to form the mct-spheroids and media for tumor cell growth. After thawing, all PDC lines, except 997537-175-T-J1-PDC and 415267-285-R-J2-PDC, were cultured in Matrigel-coated flasks prepared with a working solution of 1X Ham's F-12 nutrient mix, without supplementation (Thermo Fisher Scientific, cat. 11765054), 100 U/mL penicillin-streptomycin (Thermo Fisher Scientific, cat. 15140122), and 2.5% Matrigel (Corning Inc., Corning, NY, cat. 354248) for the first three passages. The two PDC lines 997537-175-T-J1-PDC and 415267-285-R-J2-PDC were cultured on uncoated flasks. The 857933-349-R-J2-PDC line was cultured in 6C/Colon 1B media containing advanced DMEM/F-12 (Thermo Fisher Scientific, cat. 12634028), 10 mM HEPES (Thermo Fisher Scientific, cat. 15630080), 1X GlutaMAX supplement (Thermo Fisher Scientific, cat. 35050061), 0.1 mg/mL primocin (InvivoGen, San Diego, CA, cat. ant-pm-2), 10% defined fetal bovine serum, heat inactivated (HyClone Laboratories Inc., Logan, UT, cat. SH30070.03HI), 50% L-WRN conditioned media (ATCC, cat. CRL-3276), 1.25 mM N-Acetyl-L-cysteine (Sigma-Aldrich, cat. A9165), 10 mM nicotinamide (Sigma-Aldrich, cat. N0636), 1X B-27 supplement (Thermo Fisher Scientific, cat. 17504044), 1X N-2 supplement (Thermo Fisher Scientific, cat. […]
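Further: spheroids exposed to compounds for seven days before readout.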
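Wherever viability, T/C is given: 100% = DMSO vehicle control viability.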

Compound | viability, T/C (compound 0.0316 µM) | viability, T/C (compound 0.1 µM) | viability, T/C (compound 0.316 µM) | viability, T/C (compound 1 µM) | viability, T/C (compound 3.16 µM) | viability, T/C (compound 10 µM) | IC50 | viability, T/C (compound 0.000316 µM) | viability, T/C (compound 0.001 µM) | viability, T/C (compound 0.00316 µM) | viability, T/C (compound 0.01 µM)
CC1COCCN1c1cc(C2(O)CC3CCC(C2)O3)c2cnn(-c3ccn[nH]3)c2n1 (centres undefined) | 73.6% and 75.5% and 72.3% | 55.3% and 49.3% and 45.5% | 50.6% and 44.3% and 45.2% | 30.4% and 30% and 34.4% | 23.1% and 26.1% and 31% | 22.6% and 20.5% and 20.6% | 0.213 µM and 0.137 µM and 0.135 µM | – | – | – | –
CC1COCCN1c1cc(C2(S(C)(=N)=O)CC2)nc(-c2ccnc3[nH]ccc23)n1 (centres undefined) | 98.9% and 101% and 87.7% | 89.9% and 94.3% and 103% | 98.4% and 83.1% and 84% | 71% (2×) and 73.5% | 54.2% and 53.8% and 48.3% | 30.1% and 34.3% and 34.5% | 3.5 µM and 4.11 µM and 2.82 µM | – | – | – | –
CCCS(=O)(=O)Nc1ccc(F)c(C(=O)c2c[nH]c3ncc(-c4ccc(Cl)cc4)cc23)c1F | 107% and 115% and 95.1% | 95.8% (2×) and 89.8% | 102% and 90.4% and 116% | 105% and 107% and 95.2% | 79.3% and 101% and 95.3% | 49.6% and 44.3% and 34.8% | 9.88 µM and 8.91 µM and 7.5 µM | – | – | – | –
CC[C@@]1(O)C(=O)OCc2c1cc1n(c2=O)Cc2cc3c(CN(C)C)c(O)ccc3nc2-1 | 65.8% and 77.7% and 65.3% | 53.6% and 63.2% and 48.6% | – | – | – | – | > 0.1 µM and 0.0898 µM | 97.3% and 105% and 101% | 92.3% and 95.7% and 97% | 104% and 94.3% and 91.6% | 83.4% and 88.9% and 88.8%
CCc1c2c(nc3ccc(O)cc13)-c1cc3c(c(=O)n1C2)COC(=O)[C@]3(O)CC | 59.9% and 65.7% and 60.6% | 48.4% and 64.6% and 47.4% | 33.3% and 41.8% and 31.2% | 18.5% and 31.8% and 23.8% | – | – | 0.095 µM and 0.22 µM and 0.0631 µM | – | – | 60.2% and 77.9% and 72.8% | 56.4% and 60.8% and 57.2%
CCc1cc2c(N3CCc4c(cc(Cn5ccnc5)cc4-c4cn(C)nc4C(F)(F)F)C3=O)cc(C)nc2c(OC)n1 | 106% and 92.1% and 103% | 91.4% and 85.8% and 99.9% | 116% and 83.7% and 101% | 91% and 107% and 80.5% | 75% and 69.3% and 71.5% | 54.1% and 46.2% and 47.7% | > 10 µM and 8.29 µM and 9.04 µM | – | – | – | –
CCc1cc2c(N3CCc4c(cc(Cn5ccnc5)cc4-c4cn(C)nc4C(F)(F)F)C3=O)ccnc2c(OC)n1 | 105% and 80.5% and 91.8% | 94% and 89.7% and 94.5% | 102% and 76.2% and 108% | 107% and 92.5% and 85.3% | 80.3% and 74.5% and 92% | 51% and 47.2% and 50.3% | > 10 µM and 8.89 µM | – | – | – | –
